From patent US20190031773A1, “INHIBITORS AND ANTAGONISTS OF HUMAN PYCR1” (AGENCY FOR SCIENCE, TECHNOLOGY AND RESEARCH, priority 2017, published 2019) come the findings set out here.

The target in data set [1] is T1, PYCR1 full length recombinant enzyme (aa 1-319) (Homo sapiens, UniProt P32322).
T1 construct: PYCR1 full length recombinant enzyme (aa 1-319) with a 6His-tag at the N-terminus; 6His (N); made in house; host or cells: E. coli
T1 sequence (P32322 1-319): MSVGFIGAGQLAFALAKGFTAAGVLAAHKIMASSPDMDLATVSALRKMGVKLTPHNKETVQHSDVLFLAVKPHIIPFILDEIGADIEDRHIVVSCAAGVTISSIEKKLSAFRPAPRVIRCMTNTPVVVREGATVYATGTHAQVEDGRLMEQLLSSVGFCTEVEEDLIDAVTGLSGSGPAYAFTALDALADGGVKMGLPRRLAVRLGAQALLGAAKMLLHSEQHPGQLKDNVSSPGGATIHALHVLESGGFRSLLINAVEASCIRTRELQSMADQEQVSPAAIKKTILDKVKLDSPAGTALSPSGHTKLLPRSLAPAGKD
Nature of the data set: PYCR1 Inhibition Assay (NAD(P)H-Glo luminescence). Format: biochemical. Conditions: 5 mM L-proline + 0.5 mM NAD+, 4.2 nM enzyme, 45 min at room temperature. The text has this: An example for such assay may look as follows:
The assay is based on the ability of PYCR1 to catalyze the oxidation of L-proline to L-1 pyrroline-5-carboxylate which occurs concomitant with the reduction of the cosubstrate NAD^+ to its reduced form NADH+H^+. The amount of NADH+H^+ was quantified using the NAD(P)H-Glo™ kit from Promega (catalogue number G9062). Components of the kit generate a luciferase-based luminescence signal the intensity of which is linearly proportional to the amount of NADH+H^+ generated by the PYCR1 reaction and consequently the PYCR1 activity. The luminescence intensity was taken as the measure for the amount of NADH+H^+ generated by PYCR1. […] 40 nl Test compound (dissolved and serially diluted in DMSO at final concentrations during the enzymatic reaction ranging from 6.9E-09 M to 4.5E-05 M) is added to the well of a white 1536-well microtiter plate using an acoustic dispenser (Echo Liquid Handler from Labcyte Inc.) • 2. […] Preincubation of enzyme and test compound for approximately 15 min at room temperature • 4. Add 2.0 μl Substrate mix in assay buffer (5 mM L-proline+0.5 mM NAD^+ final concentration during the enzymatic reaction) • 5. 45 min PYCR1 reaction at room temperature (linear range of the enzymatic reaction) • 6. Add 1.0 μl Stopping agent in assay buffer (2 mM ZnCl2 final concentration) • 7. Incubate for 15 min at room temperature • 8. Add 2.0 μl NAD(P)H-Glo™ reagent (Promega) • 9. Incubate for 30-150 min at room temperature for generation of the persistent luminescence signal • 10. Measure luminescence intensity in a ViewLux Imager (PerkinElmer)

The test system of data set [2] is rat MH3924A cells. As to the kind of experiment: Subcutaneous MH3924A xenograft model. Format: in vivo. The settings on record: scid mice. The source says:
Female scid mice (InVivos, Singapore) were subcutaneously inoculated with 1×10^6rat MH3924A cells that were stably transfected with either shRNA Pycr1.2 or scrambled control shRNA. Mice were sacrificed and tumors excised 3 weeks later.

The subject of data set [3] is rat MH3924A cells. As to the kind of experiment: Orthotopic MH3924A xenograft models, doxycycline-inducible shRNA. The settings on record: preventive setting, knockdown induced by doxycycline one day after orthotopic implantation. Format: in vivo, scid mice. The text has this: The HCC model was created by the direct intrahepatic injection of rat MH3924A cells harboring inducible shRNA Pycr1.2 or scrambled shRNA constructs into scid mice (InVivos, Singapore). The mice were anesthetized and a midline incision was made to expose the liver. The cells were then slowly injected under the hepatic capsule into the upper left lobe of the liver using a 27-G needle. A pale, whitish color could be observed at the point of injection under the hepatic capsule. Gentle compression was applied with a cotton applicator to stop bleeding and reflux of the cells. The abdomen was closed with a 4-0 silk suture.
In the preventive setting (FIG. 7), shRNA expression was induced the day after cell injection by adding 1 μg/ml doxycycline to the drinking water. Two weeks later, animals were sacrificed and tumors excised for analysis (n=5).
In the therapeutic setting, mice were subjected to liver MRI (magnetic resonance imaging) 7 days (1st experiment, FIG. 8) or 10 days (2nd experiment, FIG. 9) after cell injection and shRNA expression was induced one or four days later by adding 1 μg/ml doxycycline to the drinking water. On day 19 (1st experiment) or 21 (2nd experiment), animals were subjected to liver MRI and sacrificed. Tumors were lysed and analyzed for PYCR1 by Western blot.

Data set [4] relates to rat MH3924A cells.
Protocol: Morris hepatoma cells (MH3924A) were cultured in Dulbecco's modified eagle medium (DMEM) media supplemented with 10% fetal bovine serum (FBS), 100 IU/ml penicillin, 100 μg/ml streptomycin. To assess cell proliferation, cells were seeded in T25 flasks and incubated in DMEM complete medium for 24 hours to allow attachment. Subsequently, seeding cells were infected with shRNA lentivirus in the presence of 8μg/ ml of polybrene for about 7 hours, cells were grown for varying lengths of time, at the end of which they were detached by trypsinization and counted with Countess (Life Technologies, Carlsbad, USA).

In the case of `O=C(CCCc1nc(-c2ccc(Cl)cc2)no1)Nc1ccccc1C(=O)O` [2-({4-[3-(4-chlorophenyl)-1,2,4-oxadiazol-5-yl]butanoyl}amino)benzoic acid], in data set [1], the IC50 amounted to 8 µM.

On to `O=C(Cc1ccc(C(=O)O)cc1)NC(c1ccccc1)c1ccccc1N1CCCCC1` (centres unmarked) [4-(2-oxo-2-{[phenyl(2-piperidin-1-ylphenyl)methyl]amino}ethyl)benzoic acid], for which the IC50 in data set [1] was 7.3 µM.

In the case of `COc1ccc(C(=O)c2oc3ccccc3c2CSCCC(=O)OC(C)(C)C)cc1C(=O)O` [5-[(3-{[(3-tert-butoxy-3-oxopropyl)thio]methyl}-1-benzofuran-2-yl)carbonyl]-2-methoxybenzoic acid], the IC50 in data set [1] came to 8.5 µM.

As to “shRNA Pycr1.2: Rat PYCR1.2 shRNA: GAACCTGACACCCCACAACAA, short hairpin oligonucleotide targeting rat Pycr1 in lentiviral vector pLKO or pLKO-Tet”, in the data set with rat MH3924A cells [2] (MH3924A cells stably expressing shRNA, 3 weeks, n=5), the tumor weight entry was “significantly reduced”. The “tumor growth in vivo” value with rat MH3924A cells [2] (tumors excised 3 weeks later) was “significantly inhibited tumor growth”. In addition, the tumor growth entry with rat MH3924A cells [3] is recorded as “significantly reduced tumor growth”. Also, the cell growth result with rat MH3924A cells [4] (doxycycline-inducible PYCR1 knockdown MH3924A cell line, with vs without doxycycline) was “reduced cell growth”. In addition, the cell proliferation entry with rat MH3924A cells [4] (rat MH3924A cells, shRNA knockdown vs scrambled shRNA) is “reduced proliferation”.
